Measurements published in patent US20030054985A1, “N-cadherin modulated migration, invasion, and metastasis” (priority 2000, published 2003).
Entries after “also recorded” stand apart in the source; their conditions may differ.

Tests used:
Format in all cases: cell-based, human
MMP = experiment: Zymography of conditioned media
Protocol: (§1) FIG. 9. FGF-2 stimulates Matrigel invasion of N-cadherin-expressing cells and expression of MMP-9. (A) Invasion through Matrigel-coated filters of control and N-cadherin-expressing cells, pretreated for 24 h with 10 ng/ml of FGF-2 or left untreated, as measured 5 h after inoculation into Transwell chambers. The invading cells were stained (see Materials and Methods) and photographed using a digital microscope camera. Each panel illustrates a sample representing three to six filters. (B) Gelatinolytic activity of conditioned media of control (Neo-mass) (lanes 1 and 2) or N-cadherin-transfected MCF-7 cells (N-cad-mas, N-cad-5, and N-cad-17; lanes 3-8) that were either treated with FGF-2, or left untreated, as indicated. (C) Gelatinolytic activity of conditioned media of Neo-mass, N-cad-mass, N-cad-5, and N-cad- 17 that were pretreated for 24 h either with 10 ng/ml of FGF-2 (lanes 1, 3, 5 and 7, respectively) or 5 μg/ml insulin (lanes 2, 4, 6, and 8, respectively).
(§2) Secreted metalloproteinases were detected and characterized by zymography (Nakajima I et al., 1995, Br. J. Cancer. 71:1039-1045). Conditioned media were obtained by a 30-h incubation of N-cadherin and control transfected cells, which were treated overnight with or without FGF-2 (10 ng/ml) and heparin (0.1 mg/ml) in serum-free media. Conditioned media (20 μl) were loaded on 8% SDS PAGE gels that had been copolymerized with 1 mg/ml gelatin. Electrophoresis was performed under nonreducing conditions at 100 V for 2 h at 4° C. Gels were washed once for 30 min in 2.5% Triton X-100 to remove SDS, and were incubated in collagenase buffer (100 mM Tris-HCl pH 8.0, 5 mM CaCl2, 0.02% NaN3) for 40 h at 37° C. Gels were stained with 0.5% Coomassie blue in 30% methanol/10% acetic acid for 30 min at room temperature and destained in 30% methanol/10% acetic acid three times for 15 min. The presence of metalloproteinases was indicated by an unstained proteolytic zone in the substrate. […]

MMP-9 = experiment: Zymography of conditioned media
Protocol: as §1, with “(C) Gelatinolytic activity of conditioned media of Neo-mass, N-cad-mass, N-cad-5, and N-cad- 17 that were pretreated for 24 h either with 10 ng/ml of FGF-2 (lanes 1, 3, 5 and 7, respectively) or 5 μg/ml insulin (lanes 2, 4, 6, and 8, respectively).” left out
FIG. 12. […] A. MCF-7 breast cancer cells expressing either control vector (control) or N-cadherin (N-cad-5) were treated with or without FGF-2 and the relative activation of MAPK was assessed by blotting the lysates with anti phospho-MAPK (P-MAPK) (upper panel A, lanes 1-4) against the total levels of MAPK in the same lysates (T-MAPK) (lower panel A, lanes 1-4). […]
Secreted metalloproteinases were detected and characterized by zymography (Nakajima I et al., 1995, Br. J. Cancer. 71:1039-1045). […]

MAPK = experiment: Anti-phospho-MAPK immunoblot of cell lysates
Protocol: FIG. 12. N-cadherin synergizes with FGF-2 in promoting MAPK activation and MMP-9 production. A. MCF-7 breast cancer cells expressing either control vector (control) or N-cadherin (N-cad-5) were treated with or without FGF-2 and the relative activation of MAPK was assessed by blotting the lysates with anti phospho-MAPK (P-MAPK) (upper panel A, lanes 1-4) against the total levels of MAPK in the same lysates (T-MAPK) (lower panel A, lanes 1-4). B. MCF-7 breast cancer cells expressing N-cadherin (N-cad-5) were treated with or without FGF-2 in the absence or presence of a potent inhibitor of MAPK ([…]) and cell lysates were blotted with anti-P-MAPK antibodies (lower panel B) or assayed for MMP (Matrix Metallo Protease) production (upper panel B).
To determine whether N-cadherin/FGF-2-stimulated expression of MMP-9 is caused by increased MAPK activity, levels of MAPK activation in N-cadherin-expressing MCF-7 cells (N-cad-5) were compared to those found in control MCF-7 cells (Neo-mass) in response to FGF-2. Serum-starved control and N-cad-5 cells were treated with 10 ng/mL FGF-2 for 10 min and 30 μg of cell lysate were subjected to SDS-PAGE and immunobloting with either anti-phospho-MAPK (P-MAPK) or anti-total MAPK (T-MAPK).

[1] = system: N-cadherin-expressing cell lines (N-cad-mass, N-cad-5, N-cad-17); experiment: Transwell migration after FGF-2 pretreatment; settings: pretreated 24 h with 10 ng/ml FGF-2, measured 5 h after inoculation into Transwell chambers
Protocol: (§3) FIG. 8. Stimulates cell migration of N-cadherin-expressing cells. The motility of control (Neo-mass) and N-cadherin-expressing cells (N-cad-mass, N-cad-5, and N-cad-17), pretreated for 24 h with 10 ng/ml of FGF-2 or left untreated, was measured 5 h after inoculation into the Transwell chambers. (A) The migrating cells were fixed, stained, and photographed; each panel represents an example of 3-6 replicates. (B) Bar graphs represent quantitation of triplicate wells. The experiment was repeated six times.
(§4) The ability of cells to migrate through control (migration) or invade through Matrigel-coated filters (invasion) was measured in a Boyden chamber, 8-micron Transwell filters, which were coated with or without 50 μg Matrigel (Becton Dickinson & Co.), were used according to standard protocols (Albini A et al., 1987, Cancer Res 47:3239-3245). Fibroblast conditioned medium, which was obtained by a 24-h incubation of NTH-3T3 cells with 50 μg/mL ascorbic acid in serum-free DME media, was placed in the lower chamber as a chemoattractant. […] Values for invasion were expressed as the average number of migrated cells bound per microscopic field over four fields per assay and expressed as averages for triplicate experiments.

Neo-mass cell line = experiment: Transwell migration after FGF-2 pretreatment; settings: pretreated 24 h with 10 ng/ml FGF-2, measured 5 h after inoculation into Transwell chambers
Protocol: as §3, §4

[2] = system: N-cadherin-expressing MCF-7 cells; experiment: Matrigel invasion assay after FGF-2 pretreatment; settings: N-cad mass, N-cad-5 and N-cad-17; 10 ng/ml FGF-2 for 24 h, 5 h of incubation
Protocol: (§5) FIG. 9. FGF-2 stimulates Matrigel invasion of N-cadherin-expressing cells and expression of MMP-9. (A) Invasion through Matrigel-coated filters of control and N-cadherin-expressing cells, pretreated for 24 h with 10 ng/ml of FGF-2 or left untreated, as measured 5 h after inoculation into Transwell chambers. The invading cells were stained (see Materials and Methods) and photographed using a digital microscope camera. Each panel illustrates a sample representing three to six filters. (B) Gelatinolytic activity of conditioned media of control (Neo-mass) (lanes 1 and 2) or N-cadherin-transfected MCF-7 cells (N-cad-mas, N-cad-5, and N-cad-17; lanes 3-8) that were either treated with FGF-2, or left untreated, as indicated. […] The ability of cells to migrate through control (migration) or invade through Matrigel-coated filters (invasion) was measured in a Boyden chamber, 8-micron Transwell filters, which were coated with or without 50 μg Matrigel (Becton Dickinson & Co.), were used according to standard protocols (Albini A et al., 1987, Cancer Res 47:3239-3245). […] Values for invasion were expressed as the average number of migrated cells bound per microscopic field over four fields per assay and expressed as averages for triplicate experiments.

Neo-mass cell = experiment: Matrigel invasion assay after FGF-2 pretreatment; settings: 10 ng/ml FGF-2 for 24 h, 5 h of incubation
Protocol: as §5

MMP-2 = experiment: Zymography of conditioned media; settings: N-cadherin transfectants, FGF-2 10 ng/ml
Protocol: as §1, §2

[3] = N-cad-5 cells, FGF-2 plus inhibitor

insulin: Insulin from Sigma, used at a concentration that acts through the IGF-1 receptor
MMP levels (MMP; N-cad-mass, N-cad-5, N-cad-17, 5 μg/ml insulin for 24 h): no effect

COc1cccc(-c2cc(=O)c3ccccc3o2)c1N [PD 90859, reference compound]
production of MMP-9 induced by FGF-2 (MMP-9; [3]): blocked | phosphorylation of MAPK induced by FGF-2 (MAPK; [3]): blocked effectively

FGF-2: growth factor FGF-2, purchased from Pepro Tech
motility [1]: dramatic increase | motility (Neo-mass cell line): did not affect | invasiveness through Matrigel-coated filters [2]: further enhanced; also recorded: stimulates | invasion through Matrigel-coated filters (Neo-mass cell): not effect | expression of MMP-9 (MMP-9; all N-cadherin transfectants, FGF-2 10 ng/ml, conditioned media): dramatically increased; also recorded: stimulates | MMP-2 production (MMP-2): absence of detectable effects | MMP production (MMP; Neo-mass cells, FGF-2 10 ng/ml, conditioned media): no effect | MAPK phosphorylation (MAPK; N-cad-5 cells, 10 ng/mL FGF-2 for 10 min): marked increase | MAPK phosphorylation (ERK/P44 isoform) (MAPK; control MCF-7 cells, in the presence of FGF-2): only low levels of phosphorylation
